Assay results from ChEMBL document CHEMBL1201862, “PubChem BioAssay data set” (2004).
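Compound exposure: 48 hours, 5 concentrations, 96-well plates. Here, GI50 denotes the concentration required for 50% inhibition of growth.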 The source made the active and inactive calls. Cut-off read from the data, not from the text of the source: active = GI50 up to about 1.1 µM and inactive = higher.

Assays:
Assay in all cases: NCI anticancer screen, dose series, 48 h
786-0 = test system: 786-0
A498 = test system: A498
A549 = test system: A549
ACHN = test system: ACHN
BT-549 = test system: BT-549
CAKI-1 = test system: CAKI-1
CCRF-CEM = test system: CCRF-CEM
COLO 205 = test system: COLO 205
DLD-1 = test system: DLD-1
DMS-114 = test system: DMS-114
DMS-273 = test system: DMS-273
DU-145 = test system: DU-145
EKVX = test system: EKVX
HCC 2998 = test system: HCC 2998
HCT-116 = test system: HCT-116
HCT-15 = test system: HCT-15
HL-60 = test system: HL-60
HOP-18 = test system: HOP-18
HOP-62 = test system: HOP-62
HOP-92 = test system: HOP-92
HT-29 = test system: HT-29
Hs-578T = test system: Hs-578T
IGROV-1 = test system: IGROV-1
K562 = test system: K562
KM-20L2 = test system: KM-20L2
KM12 = test system: KM12
LOX IMVI = test system: LOX IMVI
LXFL 529 = test system: LXFL 529
M14 = test system: M14
M19-MEL = test system: M19-MEL
MCF7 = test system: MCF7
MDA-MB-231 = test system: MDA-MB-231
MDA-MB-435 = test system: MDA-MB-435
MDA-N = test system: MDA-N
MOLT-4 = test system: MOLT-4
Malme-3M = test system: Malme-3M
NCI-H226 = test system: NCI-H226
NCI-H23 = test system: NCI-H23
NCI-H460 = test system: NCI-H460
NCI-H522 = test system: NCI-H522
NCI/ADR-RES = test system: NCI/ADR-RES
OVCAR-3 = test system: OVCAR-3
OVCAR-4 = test system: OVCAR-4
OVCAR-5 = test system: OVCAR-5
OVCAR-8 = test system: OVCAR-8
PC-3 = test system: PC-3
RPMI-8226 = test system: RPMI-8226
RXF 393 = test system: RXF 393
SF-268 = test system: SF-268
SF-295 = test system: SF-295
SF-539 = test system: SF-539
SK-MEL-28 = test system: SK-MEL-28
SK-MEL-2 = test system: SK-MEL-2
SK-MEL-5 = test system: SK-MEL-5
SK-OV-3 = test system: SK-OV-3
SN12C = test system: SN12C
SNB-19 = test system: SNB-19
SNB-75 = test system: SNB-75
SNB-78 = test system: SNB-78
SR = test system: SR
SW-620 = test system: SW-620
TK-10 = test system: TK-10
U-251 = test system: U-251
UACC-257 = test system: UACC-257
UACC-62 = test system: UACC-62
UO-31 = test system: UO-31
XF498 = test system: XF498
RXF 631 = test system: RXF 631

C#CCNC(=O)NC(CCCCNC(=O)OCc1ccccc1)C(=O)OCc1ccccc1 (configuration not stated)
GI50 (786-0): > 95.7 µM (inactive)
GI50 (A498): 21.9 µM (inactive)
GI50 (A549): > 77.6 µM (inactive)
GI50 (ACHN): 40.1 µM (inactive)
GI50 (BT-549): > 100 µM (inactive)
GI50 (CAKI-1): > 74 µM (inactive)
GI50 (CCRF-CEM): 49.8 µM (inactive)
GI50 (COLO 205): 21.7 µM (inactive)
GI50 (DLD-1): > 100 µM (inactive)
GI50 (DMS-114): 40.7 µM (inactive)
GI50 (DMS-273): > 100 µM (inactive)
GI50 (DU-145): > 100 µM (inactive)
GI50 (EKVX): > 100 µM (inactive)
GI50 (HCC 2998): 31.5 µM (inactive)
GI50 (HCT-116): > 100 µM (inactive)
GI50 (HCT-15): > 100 µM
GI50 (HL-60): 16 µM (inactive)
GI50 (HOP-18): 23 µM (inactive)
GI50 (HOP-62): > 100 µM (inactive)
GI50 (HOP-92): 18.7 µM (inactive)
GI50 (HT-29): > 56.2 µM (inactive)
GI50 (Hs-578T): > 100 µM (inactive)
GI50 (IGROV-1): > 100 µM (inactive)
GI50 (K562): 53.6 µM (inactive)
GI50 (KM-20L2): > 100 µM (inactive)
GI50 (KM12): 99.8 µM (inactive)
GI50 (LOX IMVI): 33.7 µM (inactive)
GI50 (LXFL 529): > 100 µM (inactive)
GI50 (M14): 22.7 µM (inactive)
GI50 (M19-MEL): 11.3 µM (inactive)
GI50 (MCF7): > 100 µM (inactive)
GI50 (MDA-MB-231): > 39.2 µM (inactive)
GI50 (MDA-MB-435): 22.8 µM (inactive)
GI50 (MDA-N): 32.9 µM (inactive)
GI50 (MOLT-4): 31 µM (inactive)
GI50 (Malme-3M): 24.2 µM (inactive)
GI50 (NCI-H226): 41.6 µM (inactive)
GI50 (NCI-H23): 76.2 µM (inactive)
GI50 (NCI-H460): 93.5 µM (inactive)
GI50 (NCI-H522): 6.64 µM (inactive)
GI50 (NCI/ADR-RES): > 100 µM (inactive)
GI50 (OVCAR-3): 62.2 µM (inactive)
GI50 (OVCAR-4): > 100 µM (inactive)
GI50 (OVCAR-5): > 100 µM (inactive)
GI50 (OVCAR-8): 95.1 µM (inactive)
GI50 (PC-3): > 67 µM (inactive)
GI50 (RPMI-8226): 26.7 µM (inactive)
GI50 (RXF 393): 10.8 µM (inactive)
GI50 (SF-268): 67.6 µM (inactive)
GI50 (SF-295): > 61 µM (inactive)
GI50 (SF-539): 38.9 µM (inactive)
GI50 (SK-MEL-28): 17.7 µM (inactive)
GI50 (SK-MEL-2): 16.6 µM (inactive)
GI50 (SK-MEL-5): 18.3 µM (inactive)
GI50 (SK-OV-3): > 100 µM (inactive)
GI50 (SN12C): 37.4 µM (inactive)
GI50 (SNB-19): > 100 µM (inactive)
GI50 (SNB-75): 16.2 µM (inactive)
GI50 (SNB-78): 23.9 µM (inactive)
GI50 (SR): 34.8 µM (inactive)
GI50 (SW-620): > 100 µM (inactive)
GI50 (TK-10): 37.6 µM (inactive)
GI50 (U-251): > 72.1 µM (inactive)
GI50 (UACC-257): 19.7 µM (inactive)
GI50 (UACC-62): 12.7 µM (inactive)
GI50 (UO-31): 21.6 µM (inactive)
GI50 (XF498): 19.3 µM (inactive)

CC(CCCOC(c1ccccc1)(c1ccccc1)c1ccccc1)OC(=O)Nc1cc([N+](=O)[O-])cc([N+](=O)[O-])c1 (configuration not stated)
GI50 (786-0): 28.2 µM (inactive)
GI50 (A498): 22.8 µM (inactive)
GI50 (A549): 31.6 µM (inactive)
GI50 (ACHN): 27.7 µM (inactive)
GI50 (CAKI-1): 18.5 µM (inactive)
GI50 (CCRF-CEM): 32.4 µM (inactive)
GI50 (DLD-1): 30.1 µM (inactive)
GI50 (DMS-114): 30.6 µM (inactive)
GI50 (DMS-273): 33.7 µM (inactive)
GI50 (EKVX): 32 µM (inactive)
GI50 (HCC 2998): 35.6 µM (inactive)
GI50 (HCT-116): 33.9 µM (inactive)
GI50 (HCT-15): 32.4 µM
GI50 (HL-60): 31.6 µM (inactive)
GI50 (HOP-62): 27.4 µM (inactive)
GI50 (HT-29): 28.2 µM (inactive)
GI50 (IGROV-1): 30.9 µM (inactive)
GI50 (K562): 32.1 µM (inactive)
GI50 (KM12): 32.1 µM (inactive)
GI50 (LOX IMVI): 29.9 µM (inactive)
GI50 (LXFL 529): 29.2 µM (inactive)
GI50 (M14): 34.9 µM (inactive)
GI50 (M19-MEL): 40.3 µM (inactive)
GI50 (MOLT-4): 28.8 µM (inactive)
GI50 (Malme-3M): 27.6 µM (inactive)
GI50 (NCI-H23): 29 µM (inactive)
GI50 (NCI-H460): 24.5 µM (inactive)
GI50 (NCI-H522): 23.7 µM (inactive)
GI50 (OVCAR-3): 33.3 µM (inactive)
GI50 (OVCAR-4): 37.5 µM (inactive)
GI50 (OVCAR-8): 33.5 µM (inactive)
GI50 (RPMI-8226): 32.5 µM (inactive)
GI50 (RXF 393): 43.3 µM (inactive)
GI50 (RXF 631): 38.2 µM (inactive)
GI50 (SF-268): 35.5 µM (inactive)
GI50 (SF-295): 27 µM (inactive)
GI50 (SF-539): 38 µM (inactive)
GI50 (SK-MEL-28): 28.2 µM (inactive)
GI50 (SK-MEL-2): 29.4 µM (inactive)
GI50 (SK-MEL-5): 22.8 µM (inactive)
GI50 (SK-OV-3): 14.8 µM (inactive)
GI50 (SN12C): 41.5 µM (inactive)
GI50 (SNB-19): 57.5 µM (inactive)
GI50 (SNB-75): 21.3 µM (inactive)
GI50 (SR): 38.5 µM (inactive)
GI50 (SW-620): 33.5 µM (inactive)
GI50 (U-251): 36.9 µM (inactive)
GI50 (UACC-257): 24.3 µM (inactive)
GI50 (UACC-62): 16.9 µM (inactive)
GI50 (UO-31): 49 µM (inactive)
